Starred links: 1 amine or outer side, 2 acyl side, 3 side chain; linkers in the order of their positions; H or OH if unused. Positions of bridges follow the written chain, without caps; N, C: chain ends. Non-standard residues stand in square brackets, D forms with d. Residues, ends and D or L forms follow the SMILES beside them. Chains are numbered I, II in the order given. Actinocin(9to1) = Cc1c2oc3c(C)ccc(C(=O)[*:1])c3nc-2c(C(=O)[*:2])c(N)c1=O; NMeV = CN[C@H](C(=O)O)C(C)C; Sar = CNCC(=O)O
Key:
[1] = tested on: HCV RNA; experiment: [3H] uridine labeling of RNA in the presence of dactinomycin: HCV-RNA replication; assay type: cell-based, hepatitis C virus; details: 4 μg/ml dactinomycin, 16 hrs, clone 9-13
Procedure: (§1) To confirm this assumption, cells were incubated with [^3H] uridine in the presence of dactinomycin, the radioactively labeled RNAs were extracted, separated by means of denaturing agarose gel electrophoresis and analyzed with the aid of a common Bio-Imager using a [^3H]-sensitive screen. For this purpose approx. 5×10^5 cells of the clones 9-13 and 8-1 were incubated at a time with 100 μCi [^3H] uridine for 16 hrs. in the absence (−) or presence (+) of 4 μg/ml of dactinomycin (Dact). Following this labeling reaction the total RNA was prepared and analyzed by means of formaldehyde-agarose gel electrophoresis. Only 1/10 of the total RNA is illustrated in the first two lanes. The radioactively labeled RNA was visualized using a BAS-2500 Bio-Imager (Fuji).

[2] = tested on: Huh 7 cell clones 9-13 and 8-1; experiment: [3H] uridine labeling of RNA in the presence of dactinomycin: cellular RNA synthesis; assay type: cell-based, human; details: 4 μg/ml dactinomycin, 16 hrs
Procedure: as §1

SMILES: Cc1c2oc3c(C)ccc(C(=O)N[C@@H]4C(=O)N[C@H](C(C)C)C(=O)N5CCC[C@H]5C(=O)N(C)CC(=O)N(C)[C@@H](C(C)C)C(=O)O[C@@H]4C)c3nc-2c(C(=O)N[C@@H]2C(=O)N[C@H](C(C)C)C(=O)N3CCC[C@H]3C(=O)N(C)CC(=O)N(C)[C@@H](C(C)C)C(=O)O[C@@H]2C)c(N)c1=O [dactinomycin] (I: T[dV]P[Sar][NMeV] / II: T[dV]P[Sar][NMeV]; ester I:1-I:C, II:1-II:C; linker I:N-II:N via Actinocin(9to1))
- influence on the replication of the HCV RNA [1]: no influence
- synthesis of cellular RNA [2]: inhibited

From patent US6630343B1, “Hepatitis C virus culture system” (priority 1999, dated 2003)
